In ChEMBL document CHEMBL1201862, “PubChem BioAssay data set” (2004):
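Exposure lasted 48 hours, with cells grown in 96-well plates and compounds tested at five concentrations. Abbreviation: GI50, concentration required for 50% inhibition of growth.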 Active and inactive are the calls of the source. Rule as the data show it: active = GI50 up to about 1.1 µM and inactive = higher.

Columns and labels:
Test in all cases: DTP human tumour cell line panel, 48 h
786-0 = test system: 786-0
A498 = test system: A498
A549 = test system: A549
ACHN = test system: ACHN
BT-549 = test system: BT-549
CAKI-1 = test system: CAKI-1
CCRF-CEM = test system: CCRF-CEM
COLO 205 = test system: COLO 205
DU-145 = test system: DU-145
EKVX = test system: EKVX
HCC 2998 = test system: HCC 2998
HCT-116 = test system: HCT-116
HCT-15 = test system: HCT-15
HL-60 = test system: HL-60
HOP-62 = test system: HOP-62
HOP-92 = test system: HOP-92
HT-29 = test system: HT-29
Hs-578T = test system: Hs-578T
IGROV-1 = test system: IGROV-1
K562 = test system: K562
KM12 = test system: KM12
LOX IMVI = test system: LOX IMVI
M14 = test system: M14
MCF7 = test system: MCF7
MDA-MB-231 = test system: MDA-MB-231
MDA-MB-435 = test system: MDA-MB-435
MDA-N = test system: MDA-N
MOLT-4 = test system: MOLT-4
Malme-3M = test system: Malme-3M
NCI-H226 = test system: NCI-H226
NCI-H460 = test system: NCI-H460
NCI-H522 = test system: NCI-H522
NCI/ADR-RES = test system: NCI/ADR-RES
OVCAR-4 = test system: OVCAR-4
OVCAR-5 = test system: OVCAR-5
OVCAR-8 = test system: OVCAR-8
PC-3 = test system: PC-3
RPMI-8226 = test system: RPMI-8226
RXF 393 = test system: RXF 393
SF-268 = test system: SF-268
SF-539 = test system: SF-539
SK-MEL-28 = test system: SK-MEL-28
SK-MEL-2 = test system: SK-MEL-2
SK-MEL-5 = test system: SK-MEL-5
SN12C = test system: SN12C
SNB-19 = test system: SNB-19
SNB-75 = test system: SNB-75
SR = test system: SR
SW-620 = test system: SW-620
T47D = test system: T47D
TK-10 = test system: TK-10
U-251 = test system: U-251
UACC-257 = test system: UACC-257
NCI-H23 = test system: NCI-H23
OVCAR-3 = test system: OVCAR-3
SF-295 = test system: SF-295
SK-OV-3 = test system: SK-OV-3
UACC-62 = test system: UACC-62
UO-31 = test system: UO-31

O=c1[nH]c(=O)n(COCc2ccccc2)c2ccsc12
GI50 (786-0): > 100 µM (inactive)
GI50 (A498): > 100 µM (inactive)
GI50 (A549): > 100 µM (inactive)
GI50 (ACHN): > 100 µM (inactive)
GI50 (BT-549): > 100 µM (inactive)
GI50 (CAKI-1): > 100 µM (inactive)
GI50 (CCRF-CEM): 60.4 µM (inactive)
GI50 (COLO 205): > 100 µM (inactive)
GI50 (DU-145): > 100 µM (inactive)
GI50 (EKVX): 22.2 µM (inactive)
GI50 (HCC 2998): > 100 µM (inactive)
GI50 (HCT-116): > 100 µM (inactive)
GI50 (HCT-15): 29.2 µM
GI50 (HL-60): > 10 µM (inactive)
GI50 (HOP-62): 96.4 µM (inactive)
GI50 (HOP-92): 15.8 µM (inactive)
GI50 (HT-29): > 100 µM (inactive)
GI50 (Hs-578T): 49.1 µM (inactive)
GI50 (IGROV-1): > 100 µM (inactive)
GI50 (K562): 59 µM (inactive)
GI50 (KM12): > 100 µM (inactive)
GI50 (LOX IMVI): > 100 µM (inactive)
GI50 (M14): > 100 µM (inactive)
GI50 (MCF7): > 100 µM (inactive)
GI50 (MDA-MB-231): > 100 µM (inactive)
GI50 (MDA-MB-435): > 100 µM (inactive)
GI50 (MDA-N): > 100 µM (inactive)
GI50 (MOLT-4): > 100 µM (inactive)
GI50 (Malme-3M): > 100 µM (inactive)
GI50 (NCI-H226): > 100 µM (inactive)
GI50 (NCI-H460): 55.8 µM (inactive)
GI50 (NCI-H522): > 100 µM (inactive)
GI50 (NCI/ADR-RES): > 100 µM (inactive)
GI50 (OVCAR-4): > 100 µM (inactive)
GI50 (OVCAR-5): > 100 µM (inactive)
GI50 (OVCAR-8): > 100 µM (inactive)
GI50 (PC-3): 61.9 µM (inactive)
GI50 (RPMI-8226): > 100 µM (inactive)
GI50 (RXF 393): > 100 µM (inactive)
GI50 (SF-268): > 100 µM (inactive)
GI50 (SF-539): 66.8 µM (inactive)
GI50 (SK-MEL-28): > 100 µM (inactive)
GI50 (SK-MEL-2): > 100 µM (inactive)
GI50 (SK-MEL-5): > 100 µM (inactive)
GI50 (SN12C): > 100 µM (inactive)
GI50 (SNB-19): 73.8 µM (inactive)
GI50 (SNB-75): 75 µM (inactive)
GI50 (SR): 88.7 µM (inactive)
GI50 (SW-620): > 100 µM (inactive)
GI50 (T47D): > 100 µM (inactive)
GI50 (TK-10): > 100 µM (inactive)
GI50 (U-251): > 100 µM (inactive)
GI50 (UACC-257): > 100 µM (inactive)

C[C@H](CCC(=O)NN)[C@H]1CC[C@H]2[C@@H]3CC[C@@H]4C[C@H](O)CC[C@]4(C)[C@H]3CC[C@]12C
GI50 (786-0): 36.4 µM (inactive)
GI50 (A498): 79.3 µM (inactive)
GI50 (A549): 54.1 µM (inactive)
GI50 (ACHN): 54.8 µM (inactive)
GI50 (BT-549): 57.8 µM (inactive)
GI50 (CAKI-1): 46.3 µM (inactive)
GI50 (CCRF-CEM): 12.3 µM (inactive)
GI50 (COLO 205): 31.6 µM (inactive)
GI50 (DU-145): > 50.8 µM (inactive)
GI50 (EKVX): 43 µM (inactive)
GI50 (HCC 2998): 41.4 µM (inactive)
GI50 (HCT-116): 41 µM (inactive)
GI50 (HCT-15): 39.7 µM
GI50 (HL-60): 8.53 µM (inactive)
GI50 (HOP-62): > 100 µM (inactive)
GI50 (HOP-92): > 86.5 µM (inactive)
GI50 (HT-29): 27.7 µM (inactive)
GI50 (Hs-578T): > 100 µM (inactive)
GI50 (IGROV-1): 83.4 µM (inactive)
GI50 (K562): 14.7 µM (inactive)
GI50 (KM12): 39.2 µM (inactive)
GI50 (LOX IMVI): 31.6 µM (inactive)
GI50 (M14): 25.4 µM (inactive)
GI50 (MCF7): 31.7 µM (inactive)
GI50 (MDA-MB-231): 40.8 µM (inactive)
GI50 (MDA-MB-435): 44.2 µM (inactive)
GI50 (MDA-N): 75.7 µM (inactive)
GI50 (MOLT-4): 10.4 µM (inactive)
GI50 (Malme-3M): 52.1 µM (inactive)
GI50 (NCI-H226): > 74.6 µM (inactive)
GI50 (NCI-H23): 41.2 µM (inactive)
GI50 (NCI-H460): 52.1 µM (inactive)
GI50 (NCI-H522): 29.2 µM (inactive)
GI50 (NCI/ADR-RES): 64.1 µM (inactive)
GI50 (OVCAR-3): 32 µM (inactive)
GI50 (OVCAR-4): > 67.1 µM (inactive)
GI50 (OVCAR-5): > 88.3 µM (inactive)
GI50 (OVCAR-8): 37.2 µM (inactive)
GI50 (PC-3): 44.8 µM (inactive)
GI50 (RPMI-8226): 20.7 µM (inactive)
GI50 (RXF 393): 21.4 µM (inactive)
GI50 (SF-268): 65.3 µM (inactive)
GI50 (SF-295): > 68.2 µM (inactive)
GI50 (SF-539): 84.1 µM (inactive)
GI50 (SK-MEL-28): > 74.8 µM (inactive)
GI50 (SK-MEL-2): > 88.5 µM (inactive)
GI50 (SK-MEL-5): 23.4 µM (inactive)
GI50 (SK-OV-3): > 100 µM (inactive)
GI50 (SN12C): 55.7 µM (inactive)
GI50 (SNB-19): 97.3 µM (inactive)
GI50 (SR): 18.6 µM (inactive)
GI50 (SW-620): 71.8 µM (inactive)
GI50 (T47D): 24.8 µM (inactive)
GI50 (TK-10): 38.3 µM (inactive)
GI50 (U-251): > 73.5 µM (inactive)
GI50 (UACC-257): 61.7 µM (inactive)
GI50 (UACC-62): > 100 µM (inactive)
GI50 (UO-31): 51.9 µM (inactive)
